Measurements published in patent US20050208496A1, “Methods of testing for bronchial asthma or chronic obstructive pulmonary disease” (Genox Research, Inc., priority 2002, published 2005).
Like-named read-outs stand apart in the source and are kept apart here.

Test system: respiratory epithelial cells
Conditions: for expression level change, AQP5 (Probe ID 91275_at) / expression level change, ESTs AI758223 (Probe ID 76769_at) / expression level change, ESTs AI927079 (Probe ID 88716_at) / expression level change, MGC14128 (Probe ID 89360_at) / expression level change, PADI1 (Probe ID 81926_at) / expression level change, ST6GalNAcI (Probe ID 89741_at) / expression level change, CNTN1 (Probe ID 88239_i_at) / expression level change, DKFZP434I1735 (Probe ID 77516_r_at) / expression level change, FLJ10718 (Probe ID 69750_at) / expression level change, LGALS1 (Probe ID 80667_f_at) / expression level change, MGC14128 (Probe ID 86024_at): IL-13 stimulation
[1] = IL-13 vs no stimulation, lot 1 Day 3 AI
[2] = IL-13 vs no stimulation, lot 1 Day 3 IMM

IL-13: human IL-13 (Peprotech, Inc.) added to the medium at 50 ng/mL to stimulate respiratory epithelial cells
SLC21A12 (87860_s_at) expression change upon IL-13 stimulation (HG-U95E, lot 2, Day 7): 2.8 | rab11-FIP1 (89338_at) expression change upon IL-13 stimulation (HG-U95E, lot 2, Day 7): 14.6 | AA199856 (72960_s_at) expression change upon IL-13 stimulation (HG-U95E, lot 2, Day 7, AI): 5.5 | AA806114 (80826_at) expression change upon IL-13 stimulation (HG-U95E, lot 2, Day 7, AI): 2 | AI803648 (89255_at) expression change upon IL-13 stimulation (HG-U95E, lot 2, Day 7, AI): 2.4 | AI859144, KIAA1127 (77546_at) expression change upon IL-13 stimulation (HG-U95E, lot 2, Day 7, AI): 9.8 | AI984061 (89834_at) expression change upon IL-13 stimulation (HG-U95E, lot 2, Day 7, AI): 3.1 | AW024819 (72867_at) expression change upon IL-13 stimulation (HG-U95E, lot 2, Day 7, AI): 2.3 | BAL (69619_at) expression change upon IL-13 stimulation (HG-U95E, lot 2, Day 7, AI): 2.4 | BCAT1 (72962_at) expression change upon IL-13 stimulation (HG-U95E, lot 2, Day 7, AI): 3.7 | CLDN1 (77660_at) expression change upon IL-13 stimulation (HG-U95E, lot 2, Day 7, AI): 5.4 | EHF (8S090_at) expression change upon IL-13 stimulation (HG-U95E, lot 2, Day 7, AI): 3 | EHF (85092_g_at) expression change upon IL-13 stimulation (HG-U95E, lot 2, Day 7, AI): 7 | EPPK1 (86507_at) expression change upon IL-13 stimulation (HG-U95E, lot 2, Day 7, AI): 3.2 | FLJ20281 (83376_at) expression change upon IL-13 stimulation (HG-U95E, lot 2, Day 7, AI): 2.6 | FLJ20989 (91420_at) expression change upon IL-13 stimulation (HG-U95E, lot 2, Day 7, AI): 2.1 | FLJ21415 (89902_at) expression change upon IL-13 stimulation (HG-U95E, lot 2, Day 7, AI): 2.7 | FLJ22833 (67329_at) expression change upon IL-13 stimulation (HG-U95E, lot 2, Day 7, AI): 4.2 | GCNT3 (77751_at) expression change upon IL-13 stimulation (HG-U95E, lot 2, Day 7, AI): 2 | KIAA1685 (83541_at) expression change upon IL-13 stimulation (HG-U95E, lot 2, Day 7, AI): 2 | MASL1 (89651_at) expression change upon IL-13 stimulation (HG-U95E, lot 2, Day 7, AI): 4.2 | MFHAS1 (87816_g_at) expression change upon IL-13 stimulation (HG-U95E, lot 2, Day 7, AI): 2.7 | RIG-1 (77749_at) expression change upon IL-13 stimulation (HG-U95E, lot 2, Day 7, AI): 2.3 | SCYA26 (90189_at) expression change upon IL-13 stimulation (HG-U95E, lot 2, Day 7, AI): 29.8 | expression level change, AQP5 (Probe ID 91275_at) (lot 1, Day 3, AI): −7.7 | expression level change, ESTs AI758223 (Probe ID 76769_at) (lot 1, Day 3, AI): −3.6 | expression level change, ESTs AI927079 (Probe ID 88716_at) (lot 1, Day 3, AI): −2.7 | expression level change, MGC14128 (Probe ID 89360_at) (lot 1, Day 3, AI): −2.1 | expression level change, PADI1 (Probe ID 81926_at) (lot 1, Day 3, AI): −6.1 | expression level change, ST6GalNAcI (Probe ID 89741_at) (lot 1, Day 3, AI): −2.5 | expression level change, AQP5 (Probe ID 91275_at) (lot 1, Day 3, IMM): −3.8 | expression level change, ESTs AI758223 (Probe ID 76769_at) (lot 1, Day 3, IMM): −2.1 | expression level change, MGC14128 (Probe ID 89360_at) (lot 1, Day 3, IMM): −2.6 | expression level change, AQP5 (Probe ID 91275_at) (lot 1, Day 7, AI): −3.7 | expression level change, CNTN1 (Probe ID 88239_i_at) (lot 1, Day 7, AI): −2 | expression level change, DKFZP434I1735 (Probe ID 77516_r_at) (lot 1, Day 7, AI): −2 | expression level change, ESTs AI758223 (Probe ID 76769_at) (lot 1, Day 7, AI): −14.8 | expression level change, ESTs AI927079 (Probe ID 88716_at) (lot 1, Day 7, AI): −12.9 | expression level change, FLJ10718 (Probe ID 69750_at) (lot 1, Day 7, AI): −3 | expression level change, LGALS1 (Probe ID 80667_f_at) (lot 1, Day 7, AI): −7.2 | expression level change, MGC14128 (Probe ID 86024_at) (lot 1, Day 7, AI): −4 | expression level change, MGC14128 (Probe ID 89360_at) (lot 1, Day 7, AI): −3.8 | expression level change, PADI1 (Probe ID 81926_at) (lot 1, Day 7, AI): −6.1 | expression level change, ST6GalNAcI (Probe ID 89741_at) (lot 1, Day 7, AI): −2.4 | expression level change, CNTN1 (Probe ID 88239_i_at) (lot 1, Day 7, IMM): −2.7 | expression level change, ESTs AI758223 (Probe ID 76769_at) (lot 1, Day 7, IMM): −15.7 | expression level change, ESTs AI927079 (Probe ID 88716_at) (lot 1, Day 7, IMM): −10.7 | expression level change, FLJ10718 (Probe ID 69750_at) (lot 1, Day 7, IMM): −4.7 | expression level change, LGALS1 (Probe ID 80667_f_at) (lot 1, Day 7, IMM): −5.2 | expression level change, MGC14128 (Probe ID 86024_at) (lot 1, Day 7, IMM): −2.9 | expression level change, MGC14128 (Probe ID 89360_at) (lot 1, Day 7, IMM): −2.9 | expression level change, PADI1 (Probe ID 81926_at) (lot 1, Day 7, IMM): −7.6 | expression level change, ST6GalNAcI (Probe ID 89741_at) (lot 1, Day 7, IMM): −4.3 | expression level change, AQP5 (Probe ID 91275_at) (lot 2, Day 3, AI): −14.3 | expression level change, CNTN1 (Probe ID 88239_i_at) (lot 2, Day 3, AI): −3.8 | expression level change, ESTs AI758223 (Probe ID 76769_at) (lot 2, Day 3, AI): −9.6 | expression level change, ESTs AI927079 (Probe ID 88716_at) (lot 2, Day 3, AI): −7 | expression level change, LGALS1 (Probe ID 80667_f_at) (lot 2, Day 3, AI): −2.5 | expression level change, MGC14128 (Probe ID 86024_at) (lot 2, Day 3, AI): −2.4 | expression level change, PADI1 (Probe ID 81926_at) (lot 2, Day 3, AI): −6.7 | expression level change, ST6GalNAcI (Probe ID 89741_at) (lot 2, Day 3, AI): −8.8 | expression level change, AQP5 (Probe ID 91275_at) (lot 2, Day 7, AI): −7.7 | expression level change, CNTN1 (Probe ID 88239_i_at) (lot 2, Day 7, AI): −3.3 | expression level change, DKFZP434I1735 (Probe ID 77516_r_at) (lot 2, Day 7, AI): −2.7 | expression level change, ESTs AI927079 (Probe ID 88716_at) (lot 2, Day 7, AI): −18.5 | expression level change, FLJ10718 (Probe ID 69750_at) (lot 2, Day 7, AI): −3.6 | expression level change, LGALS1 (Probe ID 80667_f_at) (lot 2, Day 7, AI): −8.2 | expression level change, MGC14128 (Probe ID 86024_at) (lot 2, Day 7, AI): −2.8 | expression level change, MGC14128 (Probe ID 89360_at) (lot 2, Day 7, AI): −4 | expression level change, PADI1 (Probe ID 81926_at) (lot 2, Day 7, AI): −6.8 | expression level change, ST6GalNAcI (Probe ID 89741_at) (lot 2, Day 7, AI): −8.4 | AKR1B10 (37482_at) expression change [1]: −6.5 | AKR1C3 (37399_at) expression change [1]: −3.3 | AREG (34898_at) expression change [1]: −2.3 | BDKRB2 (39310_at) expression change [1]: −2.1 | BENE (33331_at) expression change [1]: −3.7 | CTSL2 (40717_at) expression change [1]: −2.8 | DUSP1 (1005_at) expression change [1]: −2.8 | GABRE (34280_at) expression change [1]: −2 | GPNMB (38379_at) expression change [1]: −3.3 | IGFBP3 (1586_at) expression change [1]: −2.4 | IGFBP3 (37319_at) expression change [1]: −2.7 | IGFBP6 (1736_at) expression change [1]: −3.6 | IMPA2 (36496_at) expression change [1]: −2.8 | LOH11CR2A (38151_at) expression change [1]: −2.1 | MMP9 (31859_at) expression change [1]: −25.5 | MMP10 (1006_at) expression change [1]: −6.3 | MSMB (32149_at) expression change [1]: −8.6 | NDRG1 (36933_at) expression change [1]: −4.9 | NOTCH3 (38750_at) expression change [1]: −2.9 | PFTK1 (36502_at) expression change [1]: −3.9 | PSCA (33792_at) expression change [1]: −6 | RARRES1 (1042_at) expression change [1]: −3.1 | RARRES1 (33505_at) expression change [1]: −2.2 | RDC1 (34288_at) expression change [1]: −4.1 | S100A8 (41096_at) expression change [1]: −5.4 | SEC14L2 (32817_at) expression change [1]: −2.1 | SERPINB5 (862_at) expression change [1]: −2.2 | SERPINE1 (672_at) expression change [1]: −12 | SERPINE1 (38125_at) expression change [1]: −6.9 | STK39 (39120_at) expression change [1]: −3.9 | c-fos (1915_s_at) expression change [1]: −2 | c-fos (1916_s_at) expression change [1]: −2.2 | AKR1B10 (37482_at) expression change [2]: −2.8 | APM2 (32527_at) expression change [2]: −2.1 | AREG (34898_at) expression change [2]: −4.2
